11 compounds from PubChem BioAssay (NCI) can be followed below.

Common to all, as to assay: DTP human tumour cell line panel, 48 h
The subject of experiment [1] is SK-MEL-28 melanoma.
The subject of experiment [2] is UACC-257 melanoma.
Experiment [3] concerns IGROV1 ovarian.
Experiment [4] has as its system UACC-62 melanoma.
Experiment [5] relates to NCI-H23 lung.
In experiment [6] the test system is U251 CNS.
The test system of experiment [7] is K-562 leukemia.
Experiment [8] deals with HT29 colon.
For experiment [9], the system named is MOLT-4 leukemia.
Experiment [10] has as its system SF-539 CNS.

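Five concentrations, 48 hours, 96-well plates. GI50 = concentration required for 50% inhibition of growth. TGI is the concentration that stops growth completely.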

Regarding `COc1ccc(NC(=O)/C(Cc2cc(=O)oc3cc(O)ccc23)=N\NC(C)(C)C)c(OC)c1`, the TGI in experiment [1], in experiment [2], in [3], in experiment [4], in experiment [5] and in experiment [6] was more than 100 µM in each case. The TGI in experiment [7], in experiment [8], in experiment [9] and in experiment [10] was more than 100 µM throughout.

For `CCOc1ccc(NC(=O)C(=O)CC(=O)c2c(C)n([O-])c3ccccc3[n+]2=O)cc1`, the TGI in experiment [1], in experiment [2], in [3], in experiment [4], in experiment [5] and in experiment [6] was more than 100 µM throughout. The TGI in [7], in experiment [8], in experiment [9] and in [10] was more than 100 µM in each case.

For `O=C(/C=C/c1cccc2ccccc12)c1ccccc1Cl`, the TGI in experiment [1] was 34 µM; in experiment [2] it was 31.3 µM; in experiment [3], 31 µM; in experiment [4], 27.3 µM; in [5], 28.5 µM; in [6] it was 23.7 µM. The TGI is more than 100 µM in experiment [7], 26.4 µM in experiment [8], 8.82 µM in experiment [9] and 31.9 µM in [10].

For `CO/N=C(\COc1ccc2c(c1)oc(=O)c1cc(OC)ccc12)c1ccc(OC)cc1`, the GI50 in experiment [1], in [2], in [3], in [4], in [5] and in experiment [6] was more than 100 µM throughout. Also, the GI50 in [7], in experiment [8], in experiment [9] and in experiment [10] was more than 100 µM in each case. In addition, the TGI in experiment [1], in [2], in [3], in experiment [4], in [5] and in [6] was more than 100 µM in each case. Also, the TGI in [7], in experiment [8], in [9] and in [10] was more than 100 µM in each case.

Regarding `Cc1cc(Cl)ccc1NC(=O)C(=O)Cc1nc2ccccc2o1`, the TGI in experiment [1], in experiment [2], in experiment [3], in [4], in [5] and in experiment [6] was more than 100 µM in each case. Moreover, the TGI in experiment [7], in experiment [8], in experiment [9] and in experiment [10] was more than 100 µM in each case.

On to `CC(=O)Oc1c2c(c(O)c3ccccc13)C(n1cnc3c(ncn3C3OC(CO)C4OC(C)(C)OC43)c1=N)CCC2` (configuration not stated), for which the TGI in [1] was 31.8 µM; in experiment [2] it was 21.8 µM; in experiment [3] it was 40.9 µM; in experiment [4], 29 µM; in [5] it was 36.7 µM; in [6] it was 33.3 µM. Further, the TGI in experiment [7] amounted to 30 µM; in experiment [8], 29.2 µM; in [9], 35.9 µM; in [10], 32.2 µM.

Take `COc1ccc(/C=C2/N=C(c3ccccc3)N(c3c(C)n(C)n(-c4ccccc4)c3=O)C2=O)cc1OC`: the GI50 in experiment [1], in experiment [2], in [3], in [4], in [5] and in experiment [6] was more than 100 µM each time. In addition, the GI50 in experiment [7] is more than 100 µM; in [8], more than 100 µM; in [9] it was 78.3 µM; in experiment [10] it was more than 100 µM. Moreover, the TGI in [1], in experiment [2], in experiment [3], in experiment [4], in experiment [5] and in experiment [6] was more than 100 µM throughout. For the same compound, the TGI in experiment [7], in experiment [8], in experiment [9] and in [10] was more than 100 µM in each case.

Regarding `O=C(CCc1n[nH]c(=S)o1)Nc1ccccc1C(F)(F)F`, the TGI in [1], in experiment [2], in [3], in experiment [4], in experiment [5] and in [6] was more than 100 µM in each case. Moreover, the TGI in experiment [7], in experiment [8], in [9] and in experiment [10] was more than 100 µM throughout.

`Cc1ccc(/C=C/C(=O)c2sc(-c3nc(C)c(C(=O)/C=C/c4ccc(C)cc4)s3)nc2C)cc1`: the TGI in [1], in experiment [2], in [3], in experiment [4], in experiment [5] and in experiment [6] was more than 100 µM each time. The TGI in experiment [7], in experiment [8], in experiment [9] and in experiment [10] was more than 100 µM throughout.

`COc1cc2c(cc1OCCCNC(=O)c1cccc3c(=O)c4ccccc4[nH]c13)N=C[C@@H]1CCCN1C2=O`: the GI50 was less than 0.01 µM in experiment [1]; less than 0.01 µM in experiment [2]; less than 0.01 µM in experiment [4]; less than 0.01 µM in experiment [5]; less than 0.01 µM in [6]; 4.03 µM in experiment [9]. Also, the GI50 in experiment [10] was less than 0.01 µM. The TGI is 2.89 µM in experiment [1]; 0.759 µM in experiment [2]; more than 33.5 µM in [3]; less than 0.01 µM in experiment [4]; less than 0.0225 µM in [5]; more than 48.8 µM in [6]. In addition, the TGI in [7] is more than 100 µM; in [8], more than 56.3 µM; in experiment [9], more than 100 µM; in [10], less than 0.01 µM.

In the case of `COc1cc(-c2cc(-c3cc4c([nH]c5ccccc54)c(-c4cc(OC)c(OC)c(OC)c4)n3)cc(-c3ccccc3)n2)cc(OC)c1OC`, the GI50 was 4.3 µM in experiment [1]; 6.14 µM in [2]; 6.44 µM in experiment [3]; 2.9 µM in experiment [4]; 5.52 µM in [5]; 4.25 µM in experiment [6]. Moreover, the GI50 in experiment [7] is 3.39 µM; in experiment [8] it was 4.03 µM; in experiment [9], 4.09 µM; in [10], 4.97 µM. Further, the TGI in [1] was 30.2 µM; in experiment [2] it was 44.6 µM; in experiment [3], more than 100 µM; in [4] it was 18 µM; in [5] it was more than 100 µM; in experiment [6], 29.1 µM. Moreover, the TGI is more than 100 µM in [7], 25.5 µM in experiment [8], 41.9 µM in experiment [9] and 44.4 µM in experiment [10].
